Patent US6365360B1, “Methods of identifying modulators of human IP prostaglandin receptor” (Merck Frosst Canada & Co., priority 1993, dated 2002)

Key:
[1] = test system: endogenous IP receptors in oocytes; assay: Control oocytes injected with CFTR cDNA alone (voltage clamp); assay type: cell-based, Xenopus laevis; conditions: 100 nM
Protocol: The broken line represents the zero current level.
(§1) The voltage-clamp experiments shown here were performed 48 hr after nuclear injection and are representative of 6 separate experiments with oocytes from 3 different frogs.
(§2) Oocytes were taken from adult females of Xenopus laevis using standard surgical procedure (Colman, A., 1984 In: Transcription and Translation—A Practical Approach, IRL Press). To remove follicle cells, oocytes were treated for 2-3 h with freshly made collagenase (2 mg/ml, type 2, Worthington Biochemical Corp., Freehold, N.J.) in Ca^2+-free ND96 solution (ND96 in mM: NaCl 96, KCl 2, MgCl2 1, HEPES 5, Na-pyruvate 2.5, theophylline 0.5, gentamicin […], +1.8 CaCl2, pH 7.6). Defolliculated stage 5-6 oocytes were selected and maintained in ND96 solution. Oocyte nuclei were injected with 1.6 ng of pcDNAlamp-IP plus 2.5 ng of pcDNAIamp-CFTR and then incubated at 18° C. for 48 h before challenge with agonist. CFTR (cystic fibrosis transmembrane regulator, a cAMP dependent Cl^− channel) was co-expressed with IP receptor in these oocytes and served as a reporter of changes in intracellular cAMP levels. Functional activity was determined by measurement of Iloprost-induced CFTR-mediated Cl^− current. An oocyte was placed in a 0.5 ml perfusion chamber and voltage clamped at −60 mV (with microelectrodes of 0.5-2.0 MW resistance filled with 3 M KCl) using a Turbo TEC 01C amplifier (NPl Instruments, Germany). Ligand-containing solution was perfused and the current response was recorded.
(§3) This rank order of potency is consistent with that reported for the IP receptor [Coleman, et al., 1990. Comprehensive Medicinal Chemistry (Hansch, C., Sammes, P. G., Taylor, J. B., and Emmett, J. C., Eds) Vol. 3, pp. 643-714, Pergamon, Press, Oxford].

[2] = molecular target: T1, human prostaglandin I2 (IP) receptor (Homo sapiens, UniProt P43119); assay: [3H]iloprost competition binding to membranes of pcDNAIamp-hIP transfected COS-M6 cells; conditions: for competition for [3H]iloprost specific binding to the hIP receptor: at a concentration of 30 μM; for IC50: read-out: IC50, competition for [3H]iloprost specific binding, 4 nM [3H]iloprost, COS-M6 membranes, pH 6.0, 45 min at 30° C.
T1 construct: A DNA molecule encoding the full length IP protein has been isolated and purified; expressed in transfected cells; host or cells: COS-M6 cells (membrane fraction), pcDNAIamp-hIP, DEAE-dextran transfection

IP receptor (hIP cDNA) = molecular target: T2, IP receptor (hIP cDNA) (Homo sapiens, UniProt P43119); assay: CFTR-mediated Cl- current in Xenopus oocytes co-injected with pcDNAIamp-IP and pcDNAIamp-CFTR (voltage clamp); assay type: cell-based; conditions: oocyte clamped at -60 mV, 48 h after injection
T2 construct: A DNA molecule encoding the full length IP protein has been isolated and purified; expressed in transfected cells; host or cells: Xenopus laevis oocytes, nuclear injection of pcDNAIamp-IP plus pcDNAIamp-CFTR
Protocol: FIG. 5A and 5B —Expression of the prostaglandin 12 receptor in IP cDNA-injected Xenopus oocytes is shown.
as §1, §2, §3

T1 sequence (P43119 whole entry): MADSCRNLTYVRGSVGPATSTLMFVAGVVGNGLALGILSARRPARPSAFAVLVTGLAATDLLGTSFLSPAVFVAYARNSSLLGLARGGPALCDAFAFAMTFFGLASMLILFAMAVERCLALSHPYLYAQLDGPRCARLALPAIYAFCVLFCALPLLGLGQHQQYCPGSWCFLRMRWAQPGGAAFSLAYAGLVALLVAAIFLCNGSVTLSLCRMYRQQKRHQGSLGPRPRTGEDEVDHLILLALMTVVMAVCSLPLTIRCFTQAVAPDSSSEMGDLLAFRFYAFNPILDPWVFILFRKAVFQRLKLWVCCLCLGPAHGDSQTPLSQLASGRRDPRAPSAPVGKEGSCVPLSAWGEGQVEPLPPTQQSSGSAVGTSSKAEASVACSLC
T2 sequence (P43119 whole entry): as above

Compound	current response in control (CFTR alone injected) oocytes [1]	competition for [3H]iloprost specific binding to the hIP receptor [2]	CFTR-mediated Cl- current response (IP receptor (hIP cDNA); 100 nM)	IC50 [2] [µM]	CFTR-mediated Cl- current response (IP receptor (hIP cDNA); perfusion of 1-100 nM)
CCCCC[C@H](O)/C=C/[C@H]1C(=O)C[C@H](O)[C@@H]1C/C=C\CCCC(=O)O [PGD2]	no responses	essentially inactive	not detectable	–	–
CCCCC[C@H](O)/C=C/[C@H]1[C@H](O)CC(=O)[C@@H]1C/C=C\CCCC(=O)O [PGE2]	no responses	–	not detectable	~10	–
CCCCC[C@H](O)/C=C/[C@@H]1[C@@H](C/C=C\CCCC(=O)O)[C@@H](O)C[C@H]1O [PGF2α]	–	–	–	~10	–
CCCCC[C@H](O)/C=C/[C@@H]1[C@@H](C/C=C\CCCC(=O)O)[C@H]2CO[C@@H]1C2 [U46619]	–	essentially inactive	–	–	–
CC#CCC(C)[C@H](O)/C=C/[C@@H]1[C@H]2C/C(=C/CCCC(=O)O)C[C@H]2C[C@H]1O (stereo partly shown) [iloprost]	no responses	–	–	–	prominent current responses
